Paper PMC6428840, “The Arabidopsis H3K27me3 demethylase JUMONJI 13 is a temperature and photoperiod dependent flowering repressor” (Nature Communications, 2019)

Target: T1, JMJ13CD (JMJ13 catalytic domain) (Arabidopsis thaliana, UniProt F4KIX0)
T1 construct: catalytic domain, residues 90-578 (jumonji, helical and C4HCHC zinc finger domains); His6-SUMO tag removed by ulp1; E. coli BL21(DE3) RIL; Ni2+ in place of Fe2+
Assay: X-ray crystal structure, […] Å
Assay type: binding
Conditions: JMJ13-NOG crystals soaked with 10 mM H3(24-35)K27me3 peptide; Ni2+ in place of Fe2+; pH 6.5; active site, α-KG analog

T1 sequence (F4KIX0 90-578): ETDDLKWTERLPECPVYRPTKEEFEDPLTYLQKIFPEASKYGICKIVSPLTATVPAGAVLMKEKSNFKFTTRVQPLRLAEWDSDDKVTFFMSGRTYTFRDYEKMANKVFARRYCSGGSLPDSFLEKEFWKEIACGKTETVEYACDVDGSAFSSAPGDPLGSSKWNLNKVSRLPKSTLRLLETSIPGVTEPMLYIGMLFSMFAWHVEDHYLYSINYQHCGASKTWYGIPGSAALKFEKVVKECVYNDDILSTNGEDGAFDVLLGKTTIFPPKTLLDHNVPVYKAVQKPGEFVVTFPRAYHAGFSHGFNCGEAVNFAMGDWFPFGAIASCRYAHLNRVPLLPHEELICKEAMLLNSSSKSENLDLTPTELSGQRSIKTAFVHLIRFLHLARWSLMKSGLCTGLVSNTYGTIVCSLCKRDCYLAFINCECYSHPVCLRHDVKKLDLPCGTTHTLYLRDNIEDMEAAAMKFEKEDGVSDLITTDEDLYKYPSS

Compound: O=C(O)CNC(=O)C(=O)O [NOG, N-oxalylglycine]
- X-ray crystal structure, 2.6 Å: in complex with the α-KG analog N-oxalylglycine (NOG) and an H3K27me3 peptide
